Assay results as given in patent US20090304692A1, “TRIAZINE COMPOUNDS AS PI3 KINASE AND MTOR INHIBITORS” (Wyeth, priority 2008, published 2009).
Like-named read-outs stand apart in the source and are kept apart here.

Assays:
PI3K-α = PI3K-α (Homo sapiens, UniProt P42336); test: PI3K-alpha fluorescence polarization assay
Human mTOR (FLAG-TOR) = Human mTOR (FLAG-TOR) (Homo sapiens, UniProt P42345); test: mTOR kinase assay (DELFIA format, purified enzyme); type: biochemical; settings: read-out: IC50 mTOR
Sequence of Human mTOR (FLAG-TOR) (P42345 1360-2549 limits assumed): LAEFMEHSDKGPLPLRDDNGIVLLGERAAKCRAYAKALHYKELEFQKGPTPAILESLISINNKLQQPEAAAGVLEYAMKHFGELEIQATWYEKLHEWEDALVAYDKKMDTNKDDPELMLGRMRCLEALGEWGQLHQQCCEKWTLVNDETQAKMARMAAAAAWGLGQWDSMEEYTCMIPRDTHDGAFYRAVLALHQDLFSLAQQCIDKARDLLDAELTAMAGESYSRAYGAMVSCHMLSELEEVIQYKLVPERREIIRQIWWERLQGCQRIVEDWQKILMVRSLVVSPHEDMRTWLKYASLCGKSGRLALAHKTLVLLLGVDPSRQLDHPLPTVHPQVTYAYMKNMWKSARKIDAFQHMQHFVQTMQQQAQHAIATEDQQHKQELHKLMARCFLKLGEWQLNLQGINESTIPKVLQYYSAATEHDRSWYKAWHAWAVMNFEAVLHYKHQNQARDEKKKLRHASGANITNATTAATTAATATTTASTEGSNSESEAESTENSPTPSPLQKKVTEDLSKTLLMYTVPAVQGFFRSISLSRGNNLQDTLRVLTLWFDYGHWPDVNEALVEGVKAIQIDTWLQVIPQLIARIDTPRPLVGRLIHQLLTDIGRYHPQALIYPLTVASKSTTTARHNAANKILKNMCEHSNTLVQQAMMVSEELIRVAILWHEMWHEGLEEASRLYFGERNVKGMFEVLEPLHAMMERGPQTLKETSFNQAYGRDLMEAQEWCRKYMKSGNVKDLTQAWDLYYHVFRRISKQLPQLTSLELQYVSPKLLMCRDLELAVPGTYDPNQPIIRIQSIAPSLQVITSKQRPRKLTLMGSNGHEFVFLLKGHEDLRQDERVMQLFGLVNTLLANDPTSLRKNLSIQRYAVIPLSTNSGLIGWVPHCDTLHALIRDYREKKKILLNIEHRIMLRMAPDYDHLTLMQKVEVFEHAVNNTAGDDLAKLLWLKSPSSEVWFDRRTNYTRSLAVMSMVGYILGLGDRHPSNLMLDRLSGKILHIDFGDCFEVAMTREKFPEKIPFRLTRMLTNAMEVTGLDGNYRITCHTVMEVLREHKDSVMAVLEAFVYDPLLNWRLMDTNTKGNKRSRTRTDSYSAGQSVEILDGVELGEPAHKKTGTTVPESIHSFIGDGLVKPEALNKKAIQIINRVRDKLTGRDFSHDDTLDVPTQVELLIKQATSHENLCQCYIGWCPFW

PI3K-γ = PI3K-γ (Homo sapiens, UniProt P48736); test: PI3K-gamma fluorescence polarization assay
Sequence of PI3K-γ (P48736 whole entry, species assumed): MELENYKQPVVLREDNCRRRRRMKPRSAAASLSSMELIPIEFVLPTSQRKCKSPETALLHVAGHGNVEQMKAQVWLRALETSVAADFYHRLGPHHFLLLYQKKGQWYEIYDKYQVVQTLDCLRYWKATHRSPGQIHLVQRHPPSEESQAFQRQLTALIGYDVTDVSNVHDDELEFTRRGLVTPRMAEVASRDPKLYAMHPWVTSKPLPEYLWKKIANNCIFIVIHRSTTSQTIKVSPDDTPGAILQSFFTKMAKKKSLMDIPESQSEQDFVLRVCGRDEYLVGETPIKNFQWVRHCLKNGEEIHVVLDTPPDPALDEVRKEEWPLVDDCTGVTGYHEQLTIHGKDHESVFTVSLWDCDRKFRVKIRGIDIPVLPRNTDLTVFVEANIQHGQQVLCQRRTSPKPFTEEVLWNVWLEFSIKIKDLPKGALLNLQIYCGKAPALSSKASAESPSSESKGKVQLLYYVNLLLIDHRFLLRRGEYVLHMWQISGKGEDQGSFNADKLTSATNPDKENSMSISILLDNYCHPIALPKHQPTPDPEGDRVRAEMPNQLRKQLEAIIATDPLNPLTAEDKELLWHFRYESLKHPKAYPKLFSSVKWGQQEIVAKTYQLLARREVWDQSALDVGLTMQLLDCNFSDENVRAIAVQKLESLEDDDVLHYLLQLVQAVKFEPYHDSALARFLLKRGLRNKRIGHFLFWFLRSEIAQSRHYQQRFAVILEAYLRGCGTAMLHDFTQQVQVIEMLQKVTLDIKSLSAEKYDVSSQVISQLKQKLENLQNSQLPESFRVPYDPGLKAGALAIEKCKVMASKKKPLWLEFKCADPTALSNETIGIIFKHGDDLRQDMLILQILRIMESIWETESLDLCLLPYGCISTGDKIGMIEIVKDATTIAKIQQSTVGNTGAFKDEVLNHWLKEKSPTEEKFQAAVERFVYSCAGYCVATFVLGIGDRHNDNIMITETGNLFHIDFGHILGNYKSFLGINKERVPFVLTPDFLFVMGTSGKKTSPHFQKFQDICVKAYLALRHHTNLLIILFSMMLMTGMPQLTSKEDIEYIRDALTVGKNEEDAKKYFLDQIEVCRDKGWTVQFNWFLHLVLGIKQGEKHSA

[1] = system: human prostate LNCap tumor cell line; test: In vitro cell culture growth assay (MTS), LNCap; settings: Homo sapiens, LNCaP, 72 h, read-out: IC50 LNCap

Sequence of PI3K-α (P42336 whole entry, species assumed): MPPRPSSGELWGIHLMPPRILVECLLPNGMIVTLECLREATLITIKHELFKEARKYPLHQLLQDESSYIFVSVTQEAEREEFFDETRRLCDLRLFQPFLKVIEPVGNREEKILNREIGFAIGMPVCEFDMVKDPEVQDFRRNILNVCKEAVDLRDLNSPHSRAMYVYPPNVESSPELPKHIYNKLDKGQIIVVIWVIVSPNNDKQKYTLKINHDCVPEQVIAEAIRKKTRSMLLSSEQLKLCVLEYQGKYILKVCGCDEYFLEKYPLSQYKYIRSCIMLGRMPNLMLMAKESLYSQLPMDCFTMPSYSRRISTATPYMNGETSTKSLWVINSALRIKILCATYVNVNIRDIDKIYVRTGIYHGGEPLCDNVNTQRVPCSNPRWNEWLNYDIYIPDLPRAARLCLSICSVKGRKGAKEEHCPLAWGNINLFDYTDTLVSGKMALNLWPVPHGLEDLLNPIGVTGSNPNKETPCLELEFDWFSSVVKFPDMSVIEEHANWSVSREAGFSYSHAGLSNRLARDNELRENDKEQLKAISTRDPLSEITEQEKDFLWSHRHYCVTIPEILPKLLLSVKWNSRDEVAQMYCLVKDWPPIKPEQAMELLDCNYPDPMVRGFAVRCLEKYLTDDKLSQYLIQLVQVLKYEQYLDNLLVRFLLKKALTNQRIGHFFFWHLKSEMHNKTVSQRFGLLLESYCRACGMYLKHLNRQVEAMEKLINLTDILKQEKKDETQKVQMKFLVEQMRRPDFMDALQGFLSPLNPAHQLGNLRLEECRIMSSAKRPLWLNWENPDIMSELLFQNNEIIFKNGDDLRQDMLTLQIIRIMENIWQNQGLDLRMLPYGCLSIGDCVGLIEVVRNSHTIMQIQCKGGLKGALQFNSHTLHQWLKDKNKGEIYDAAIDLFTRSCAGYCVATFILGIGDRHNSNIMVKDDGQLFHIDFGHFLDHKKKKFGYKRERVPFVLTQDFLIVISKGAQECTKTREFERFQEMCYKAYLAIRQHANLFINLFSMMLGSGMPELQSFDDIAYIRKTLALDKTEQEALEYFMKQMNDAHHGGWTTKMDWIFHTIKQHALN
Sequence of PI3K-α (P27986 whole entry partner, species assumed): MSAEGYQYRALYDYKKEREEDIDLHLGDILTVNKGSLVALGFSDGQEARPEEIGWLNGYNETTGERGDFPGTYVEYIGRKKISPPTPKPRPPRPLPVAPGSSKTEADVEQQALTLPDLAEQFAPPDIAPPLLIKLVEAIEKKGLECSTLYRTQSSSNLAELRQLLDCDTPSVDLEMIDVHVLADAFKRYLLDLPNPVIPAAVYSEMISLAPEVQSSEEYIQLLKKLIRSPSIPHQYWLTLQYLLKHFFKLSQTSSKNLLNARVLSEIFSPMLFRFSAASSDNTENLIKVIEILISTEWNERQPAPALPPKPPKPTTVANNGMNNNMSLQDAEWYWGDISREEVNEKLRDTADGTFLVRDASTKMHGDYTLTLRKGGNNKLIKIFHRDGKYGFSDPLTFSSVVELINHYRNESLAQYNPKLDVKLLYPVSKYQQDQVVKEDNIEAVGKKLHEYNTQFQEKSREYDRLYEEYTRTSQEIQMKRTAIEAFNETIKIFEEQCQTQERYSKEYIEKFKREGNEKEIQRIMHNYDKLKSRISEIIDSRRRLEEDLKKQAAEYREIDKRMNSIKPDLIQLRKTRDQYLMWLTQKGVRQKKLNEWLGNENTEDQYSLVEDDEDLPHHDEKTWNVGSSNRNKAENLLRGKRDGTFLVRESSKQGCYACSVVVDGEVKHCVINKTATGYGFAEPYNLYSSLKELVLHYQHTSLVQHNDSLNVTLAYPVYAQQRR

Row | SMILES | IC50 (PI3K-α; read-out: IC50 PI3Kα) | IC50 (Human mTOR (FLAG-TOR)) | IC50 (PI3K-γ; read-out: IC50 PI3Kγ) | IC50 [1] | IC50 (PI3K-α) | IC50 (PI3K-γ)
1 | O=C(Nc1ccncc1)Nc1ccc(-c2nc(N3CCC(NCCN4CCOCC4)CC3)nc(N3CC4CCC(C3)O4)n2)cc1 [Example 124, 1-(4-(4-(8-oxa-3-azabicyclo[3.2.1]octan-3-yl)-6-(4-(2-morpholinoethylamino)piperidin-1-yl)-1,3,5-triazin-2-yl)phenyl)-3-(pyridin-4-yl)urea] | 1.65 µM | 0.155 µM | 9.65 µM | 1.95 µM |  | 
2 | COC(=O)CNC1CCN(c2nc(-c3ccc(NC(=O)Nc4ccncc4)cc3)nc(N3CC4CCC(C3)O4)n2)CC1 [Example 125, Methyl 2-(1-(4-(8-oxa-3-azabicyclo[3.2.1]octan-3-yl)-6-(4-(3-pyridin-4-ylureido)phenyl)-1,3,5-triazin-2-yl)piperidin-4-ylamino)acetate] | 0.84 µM | 0.016 µM | 8.75 µM | 1 µM |  | 
3 | NC(=O)CNC1CCN(c2nc(-c3ccc(NC(=O)Nc4ccncc4)cc3)nc(N3CC4CCC(C3)O4)n2)CC1 [Example 126, 2-(1-(4-(8-oxa-3-azabicyclo[3.2.1]octan-3-yl)-6-(4-(3-pyridin-4-ylureido)phenyl)-1,3,5-triazin-2-yl)piperidin-4-ylamino)acetamide] | 0.51 µM | 0.0195 µM | 5.51 µM | 1.3 µM |  | 
4 | CC(C)(C)OC(=O)CNC1CCN(c2nc(-c3ccc(NC(=O)Nc4ccncc4)cc3)nc(N3CC4CCC(C3)O4)n2)CC1 [Example 127, Tert-butyl 2-(1-(4-(8-oxa-3-azabicyclo[3.2.1]octan-3-yl)-6-(4-(3-pyridin-4-ylureido)phenyl)-1,3,5-triazin-2-yl)piperidin-4-ylamino)acetate] | 1.39 µM | 0.0515 µM | 4.73 µM | 1.35 µM |  | 
5 | COC(=O)Nc1ccc(-c2nc(-c3ccc(NC(=O)Nc4ccc(N5CCN(C)CC5)cc4)cc3)nc(N3CC4CCC(C3)O4)n2)cc1 [Example 145, methyl(4-{4-[4-({[4-(4-methylpiperazin-1-yl)phenyl]carbamoyl}amino)phenyl]-6-(8-oxa-3-azabicyclo[3.2.1]oct-3-yl)-1,3,5-triazin-2-yl}phenyl)carbamate] | 0.574 µM | 0.009 µM | 1 µM | 0.12 µM |  | 
6 | CN1CCN(c2ccc(NC(=O)Nc3ccc(-c4nc(-c5ccc(NC(=O)Nc6ccc(N7CCN(C)CC7)cc6)cc5)nc(N5CC6CCC(C5)O6)n4)cc3)cc2)CC1 [Example 147, N′,N′″-{[6-(8-oxa-3-azabicyclo[3.2.1]oct-3-yl)-1,3,5-triazine-2,4-diyl]di-4,1-phenylene}bis{1-[4-(4-methylpiperazin-1-yl)phenyl]urea}] | 1.93 µM | 0.006 µM | 6.83 µM | 1 µM |  | 
7 | CN1CCN(c2ccc(NC(=O)Nc3ccc(-c4nc(-c5ccc(NC(=O)Nc6ccncc6)cc5)nc(N5CC6CCC(C5)O6)n4)cc3)cc2)CC1 [Example 148, 1-[4-(4-methylpiperazin-1-yl)phenyl]-3-{4-[4-(8-oxa-3-azabicyclo[3.2.1]oct-3-yl)-6-{4-[(pyridin-4-ylcarbamoyl)amino]phenyl}-1,3,5-triazin-2-yl]phenyl}urea] | 0.3 µM | 0.008 µM | 0.62 µM | 0.68 µM |  | 
8 | NCCNc1nc(-c2ccc(NC(=O)Nc3cccnc3)cc2)nc(N2CC3CCC(C2)O3)n1 [Example 149, 1-(4-{4-[(2-aminoethyl)amino]-6-(8-oxa-3-azabicyclo[3.2.1]oct-3-yl)-1,3,5-triazin-2-yl}phenyl)-3-pyridin-3-ylurea] | 0.889 µM | 0.08 µM | 1.4 µM | 32 µM |  | 
9 | O=C(Nc1ccc(-c2nc(Nc3ccccc3)nc(N3CC4CCC(C3)O4)n2)cc1)Nc1cccnc1 [Example 150, 1-{4-[4-anilino-6-(8-oxa-3-azabicyclo[3.2.1]oct-3-yl)-1,3,5-triazin-2-yl]phenyl}-3-pyridin-3-ylurea] |  | 0.005 µM |  | 0.29 µM | 0.832 µM | > 10 µM
10 | O=C(Nc1ccc(-c2nc(NC3CNC3)nc(N3CC4CCC(C3)O4)n2)cc1)Nc1cccnc1 [Example 154, 1-{4-[4-(azetidin-3-ylamino)-6-(8-oxa-3-azabicyclo[3.2.1]oct-3-yl)-1,3,5-triazin-2-yl]phenyl}-3-pyridin-3-ylurea] | 0.275 µM | 0.064 µM | 3.82 µM | 22 µM |  | 
11 | O=C(Nc1ccc(-c2nc(NCCN3CCOCC3)nc(N3CC4CCC(C3)O4)n2)cc1)Nc1cccnc1 [Example 155, 1-(4-{4-[(2-morpholin-4-ylethyl)amino]-6-(8-oxa-3-azabicyclo[3.2.1]oct-3-yl)-1,3,5-triazin-2-yl}phenyl)-3-pyridin-3-ylurea] | 2.3 µM | 0.016 µM | 4.94 µM | 0.4 µM |  | 
12 | O=C(Nc1ccc(-c2nc(NN3CCN(C4CCCC4)CC3)nc(N3CC4CCC(C3)O4)n2)cc1)Nc1cccnc1 [Example 157, 1-(4-{4-[(4-cyclopentylpiperazin-1-yl)amino]-6-(8-oxa-3-azabicyclo[3.2.1]oct-3-yl)-1,3,5-triazin-2-yl}phenyl)-3-pyridin-3-ylurea] | 1.45 µM | 0.17 µM | 7.09 µM | 2.7 µM |  | 
13 | CC(C)Oc1nc(-c2ccc(NC(=O)Nc3ccncc3)cc2)nc(N2CC3CCC(C2)O3)n1 [Example 158, 1-{4-[4-isopropoxy-6-(8-oxa-3-azabicyclo[3.2.1]oct-3-yl)-1,3,5-triazin-2-yl]phenyl}-3-pyridin-4-ylurea] | 0.3 µM | 0.007 µM | 1.29 µM | 0.049 µM |  | 
14 | CC(C)Oc1nc(-c2ccc(NC(=O)Nc3ccc(N4CCN(C)CC4)cc3)cc2)nc(N2CC3CCC(C2)O3)n1 [Example 159, 1-{4-[4-isopropoxy-6-(8-oxa-3-azabicyclo[3.2.1]oct-3-yl)-1,3,5-triazin-2-yl]phenyl}-3-[4-(4-methylpiperazin-1-yl)phenyl]urea] | 0.133 µM | 0.002 µM | 3.92 µM | 0.0012 µM |  | 
15 | O=C(Nc1ccncc1)Nc1ccc(-c2nc(Cl)nc(N3CC4CCC(C3)O4)n2)cc1 [Example 160, 1-{4-[4-chloro-6-(8-oxa-3-azabicyclo[3.2.1]oct-3-yl)-1,3,5-triazin-2-yl]phenyl}-3-pyridin-4-ylurea] | 0.358 µM | 0.007 µM | 9.07 µM | 0.22 µM |  | 
16 | O=C(Nc1ccc(-c2nc(NCC3CCNCC3)nc(N3CC4CCC(C3)O4)n2)cc1)Nc1cccnc1 [Example 169, 1-(4-{4-(8-oxa-3-azabicyclo[3.2.1]oct-3-yl)-6-[(piperidin-4-ylmethyl)amino]-1,3,5-triazin-2-yl}phenyl)-3-pyridin-3-ylurea] | 0.408 µM | 0.0083 µM | 7.96 µM | 5 µM |  | 
17 | O=C(Nc1ccc(-c2nc(NCCC3CCNCC3)nc(N3CC4CCC(C3)O4)n2)cc1)Nc1cccnc1 [Example 170, 1-(4-{4-(8-oxa-3-azabicyclo[3.2.1]oct-3-yl)-6-[(2-piperidin-4-ylethyl)amino]-1,3,5-triazin-2-yl}phenyl)-3-pyridin-3-ylurea] | 0.384 µM | 0.004 µM | 9.5 µM | 4.5 µM |  | 
18 | CN1CCN(c2nc(-c3ccc(NC(=O)Nc4cccnc4)cc3)nc(N3CC4CCC(C3)O4)n2)C1 [Example 171, 1-{4-[4-(3-methylimidazolidin-1-yl)-6-(8-oxa-3-azabicyclo[3.2.1]oct-3-yl)-1,3,5-triazin-2-yl]phenyl}-3-pyridin-3-ylurea] | 0.3 µM | 0.0012 µM | 9.5 µM | 5.2 µM |  | 
19 | COCC(COC)Oc1nc(-c2ccc(NC(=O)Nc3ccncc3)cc2)nc(N2CC3CCC(C2)O3)n1 [Example 174, 1-(4-{4-[2-methoxy-1-(methoxymethyl)ethoxy]-6-(8-oxa-3-azabicyclo[3.2.1]oct-3-yl)-1,3,5-triazin-2-yl}phenyl)-3-pyridin-4-ylurea] | 0.861 µM | 0.0021 µM | 0.727 µM | 0.00425 µM |  | 
20 | COCC(COC)Oc1nc(-c2ccc(NC(=O)Nc3ccc(N4CCN(C)CC4)cc3)cc2)nc(N2CC3CCC(C2)O3)n1 [Example 175, 1-(4-{4-[2-methoxy-1-(methoxymethyl)ethoxy]-6-(8-oxa-3-azabicyclo[3.2.1]oct-3-yl)-1,3,5-triazin-2-yl}phenyl)-3-[4-(4-methylpiperazin-1-yl)phenyl]urea] | 0.549 µM | 0.0048 µM | 0.453 µM | 0.0095 µM |  | 
21 | COCC(COC)Oc1nc(-c2ccc(NC(=O)OCCO)cc2)nc(N2CC3CCC(C2)O3)n1 [Example 176, 2-hydroxyethyl (4-{4-[2-methoxy-1-(methoxymethyl)ethoxy]-6-(8-oxa-3-azabicyclo[3.2.1]oct-3-yl)-1,3,5-triazin-2-yl}phenyl)carbamate] | 1.12 µM | 0.022 µM | 3.73 µM | 1 µM |  | 
22 | CNC(=O)Nc1ccc(-c2nc(OC(COC)COC)nc(N3CC4CCC(C3)O4)n2)cc1 [Example 177, 1-(4-{4-[2-methoxy-1-(methoxymethyl)ethoxy]-6-(8-oxa-3-azabicyclo[3.2.1]oct-3-yl)-1,3,5-triazin-2-yl}phenyl)-3-methylurea] | 5.84 µM | 0.0016 µM | 4.12 µM | 0.6 µM |  | 
23 | COCC(COC)Oc1nc(-c2ccc(NC(=O)NC3CC3)cc2)nc(N2CC3CCC(C2)O3)n1 [Example 178, 1-cyclopropyl-3-(4-{4-[2-methoxy-1-(methoxymethyl)ethoxy]-6-(8-oxa-3-azabicyclo[3.2.1]oct-3-yl)-1,3,5-triazin-2-yl}phenyl)urea] |  | 0.014 µM |  | 0.85 µM | > 10 µM | > 10 µM
